Measured values: ChEMBL document CHEMBL4428063, “Novel Pyrimidine Toll-like Receptor 7 and 8 Dual Agonists to Treat Hepatitis B Virus” (J Med Chem, 2016)
Active and inactive are the calls of the source. The rule behind the calls is not given here.

Experiments:
[1] = biological target: T1, Toll-like receptor 7 (Homo sapiens) (UniProt Q9NYK1); experiment: Activation of TLR7 in human PBMCs incubated for overnight duration followed by compound-treated cell supernatant conditioned media transfer to HCV1b transfected human HuH7-luc/neo replicon cells assessed as induction of INFalpha-mediated suppression of virus growth by firefly-luciferase reporter gene assay
T1 sequence (whole entry): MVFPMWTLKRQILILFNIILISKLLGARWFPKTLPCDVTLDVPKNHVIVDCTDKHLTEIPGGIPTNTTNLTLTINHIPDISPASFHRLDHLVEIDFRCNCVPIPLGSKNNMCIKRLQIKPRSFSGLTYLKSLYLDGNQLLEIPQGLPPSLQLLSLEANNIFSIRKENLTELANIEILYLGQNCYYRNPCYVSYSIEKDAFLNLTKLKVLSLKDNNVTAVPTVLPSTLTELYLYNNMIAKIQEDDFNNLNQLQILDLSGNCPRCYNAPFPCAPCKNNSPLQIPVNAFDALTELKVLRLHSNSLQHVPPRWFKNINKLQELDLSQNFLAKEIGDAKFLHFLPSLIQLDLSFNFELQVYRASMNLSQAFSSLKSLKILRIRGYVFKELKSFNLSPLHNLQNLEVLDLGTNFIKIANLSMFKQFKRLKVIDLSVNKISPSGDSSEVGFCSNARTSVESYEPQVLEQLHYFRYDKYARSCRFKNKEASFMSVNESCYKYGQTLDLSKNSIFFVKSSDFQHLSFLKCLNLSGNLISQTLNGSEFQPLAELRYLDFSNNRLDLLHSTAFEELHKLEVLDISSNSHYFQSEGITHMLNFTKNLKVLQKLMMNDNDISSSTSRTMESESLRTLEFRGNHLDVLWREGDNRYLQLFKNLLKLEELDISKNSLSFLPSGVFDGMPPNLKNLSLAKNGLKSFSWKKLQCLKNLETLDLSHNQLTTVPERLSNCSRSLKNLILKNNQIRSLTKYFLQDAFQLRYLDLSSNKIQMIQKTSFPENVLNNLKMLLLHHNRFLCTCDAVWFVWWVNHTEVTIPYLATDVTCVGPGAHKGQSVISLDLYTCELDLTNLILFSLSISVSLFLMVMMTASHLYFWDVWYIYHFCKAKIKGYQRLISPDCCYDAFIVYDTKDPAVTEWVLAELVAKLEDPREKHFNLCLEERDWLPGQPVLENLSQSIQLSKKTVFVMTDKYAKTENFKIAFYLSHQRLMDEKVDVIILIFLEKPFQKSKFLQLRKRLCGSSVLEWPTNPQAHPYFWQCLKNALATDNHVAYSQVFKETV

[2] = Intrinsic clearance in C57Bl/6 mouse hepatocytes at 1 uM measured after 120 mins; assay type: ADME, cell-based, Hepatocyte; settings: 2 h
[3] = Plasma concentration in C57Bl/6 mouse infected with HBV genotype D at 5 mg/kg, po dosed once per week for 8 weeks administered 6 weeks after viral infection and measured on day 42 post 1 hr of dosage; assay type: ADME, organism-based; settings: in vivo
[4] = Intrinsic clearance in human hepatocytes at 1 uM measured after 120 mins; assay type: ADME, cell-based, Hepatocyte; settings: 2 h
[5] = biological target: Toll-like receptor 5 (Homo sapiens) (UniProt O60602); experiment: Agonist activity at wild-type human TLR5 expressed in HEK293 cells up to 25 uM measured after 6 hrs by NF-kappaB luciferase reporter gene assay; assay type: cell-based
[6] = system: HepG2; experiment: Cytotoxicity against human HepG2 cells measured after 72 hrs by multiplex end point analysis; assay type: cell-based; settings: hepg2, 72 h
[7] = Tmax in cynomolgus monkey plasma at 30 mg/kg, administered through oral gavage measured after 24 hrs; assay type: ADME, organism-based, Macaca fascicularis
[8] = Solubility of the compound; assay type: physicochemical
[9] = AUC(0 to last) in cynomolgus monkey plasma at 3 mg/kg, administered through oral gavage measured after 24 hrs; assay type: ADME, organism-based, Macaca fascicularis; set-up: dose 3 mg/kg, time 0 - last, route oral
[10] = AUC(0 to last) in cynomolgus monkey plasma at 9 mg/kg, administered through oral gavage measured after 24 hrs; assay type: ADME, organism-based, Macaca fascicularis; set-up: dose 9 mg/kg, route oral, time 0 - last
[11] = biological target: T2, Toll-like receptor 6 (Homo sapiens) (UniProt Q9Y2C9); experiment: Agonist activity at wild-type human TLR6 expressed in HEK293 cells up to 25 uM measured after 6 hrs by NF-kappaB luciferase reporter gene assay; assay type: cell-based
T2 sequence (whole entry): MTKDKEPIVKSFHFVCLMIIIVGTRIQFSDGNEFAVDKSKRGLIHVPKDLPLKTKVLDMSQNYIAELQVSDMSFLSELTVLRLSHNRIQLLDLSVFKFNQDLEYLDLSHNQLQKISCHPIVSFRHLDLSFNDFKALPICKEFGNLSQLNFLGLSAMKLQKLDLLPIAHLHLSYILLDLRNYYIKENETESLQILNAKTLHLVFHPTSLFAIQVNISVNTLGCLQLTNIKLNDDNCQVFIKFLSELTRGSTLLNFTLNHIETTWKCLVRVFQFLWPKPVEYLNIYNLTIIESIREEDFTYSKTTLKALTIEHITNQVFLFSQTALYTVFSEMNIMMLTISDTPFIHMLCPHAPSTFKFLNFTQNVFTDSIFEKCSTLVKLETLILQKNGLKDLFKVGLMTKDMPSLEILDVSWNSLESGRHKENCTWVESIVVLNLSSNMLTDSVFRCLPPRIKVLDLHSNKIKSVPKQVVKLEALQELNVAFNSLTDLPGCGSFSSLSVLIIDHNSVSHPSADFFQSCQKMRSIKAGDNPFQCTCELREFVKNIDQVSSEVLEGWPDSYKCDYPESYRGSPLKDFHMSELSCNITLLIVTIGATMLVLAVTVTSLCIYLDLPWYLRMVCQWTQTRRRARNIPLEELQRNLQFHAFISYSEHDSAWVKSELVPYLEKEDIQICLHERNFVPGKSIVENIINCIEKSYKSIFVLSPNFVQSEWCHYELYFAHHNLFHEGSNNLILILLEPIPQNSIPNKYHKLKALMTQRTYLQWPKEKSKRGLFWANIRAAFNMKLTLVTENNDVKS

[12] = Tmax in Sprague-Dawley rat liver at 10 mg/kg, po; assay type: ADME, organism-based
[13] = Oral bioavailability in cynomolgus monkey at 9 mg/kg, measured after 24 hrs; assay type: ADME, organism-based, Macaca fascicularis; settings: in vivo
[14] = Plasma concentration in C57Bl/6 mouse infected with HBV genotype D at 5 mg/kg, po dosed once per week for 8 weeks and measured after 164 hrs after dosing prior to subsequent dosing; assay type: ADME, organism-based; settings: in vivo
[15] = Oral bioavailability in cynomolgus monkey at 3 mg/kg, measured after 24 hrs; assay type: ADME, organism-based, Macaca fascicularis; settings: in vivo
[16] = Ratio of drug level in Sprague-Dawley rat liver to plasma at 10 mg/kg, po; assay type: ADME, organism-based; settings: liver and plasma

Chain of Toll-like receptor 5 (Homo sapiens) (O60602 whole entry): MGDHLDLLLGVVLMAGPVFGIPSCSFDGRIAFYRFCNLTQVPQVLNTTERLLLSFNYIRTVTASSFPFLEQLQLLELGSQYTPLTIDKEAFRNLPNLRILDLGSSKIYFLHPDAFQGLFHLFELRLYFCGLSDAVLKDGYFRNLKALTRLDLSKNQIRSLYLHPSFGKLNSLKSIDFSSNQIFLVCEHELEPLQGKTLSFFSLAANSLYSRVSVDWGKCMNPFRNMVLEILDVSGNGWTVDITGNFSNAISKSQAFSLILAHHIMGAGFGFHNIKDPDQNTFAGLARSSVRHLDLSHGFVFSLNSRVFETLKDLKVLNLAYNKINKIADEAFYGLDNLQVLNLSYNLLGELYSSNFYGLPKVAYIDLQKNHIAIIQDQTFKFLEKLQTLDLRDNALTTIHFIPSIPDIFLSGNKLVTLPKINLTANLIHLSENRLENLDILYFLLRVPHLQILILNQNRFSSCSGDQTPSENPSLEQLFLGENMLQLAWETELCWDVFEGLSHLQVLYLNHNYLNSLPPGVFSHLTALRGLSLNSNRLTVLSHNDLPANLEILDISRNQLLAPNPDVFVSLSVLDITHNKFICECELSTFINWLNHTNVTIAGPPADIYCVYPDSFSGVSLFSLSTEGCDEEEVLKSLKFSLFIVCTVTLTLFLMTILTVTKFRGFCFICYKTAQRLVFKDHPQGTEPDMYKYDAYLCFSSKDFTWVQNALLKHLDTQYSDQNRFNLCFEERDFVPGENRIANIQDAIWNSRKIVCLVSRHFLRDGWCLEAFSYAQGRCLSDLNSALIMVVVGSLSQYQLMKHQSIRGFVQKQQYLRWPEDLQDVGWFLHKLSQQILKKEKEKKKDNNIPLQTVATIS

Compound: CCCC[C@@H](CCO)Nc1nc(N)ncc1OC
- LED [1]: 0.5 µM
- CLH [2]: 20 µL/min
- Cp [3]: 245 ng/mL
- CLH [4]: 18 µL/min
- Activity [5]: inactive
- EC20 [6]: > 86 µM
- Tmax [7]: 60 to 120 min
- solubility [8]: Soluble
- AUC(0-t) at 24 h [9]: 11 ng·h/mL
- AUC(0-t) at 24 h [10]: 72 ng·h/mL
- Activity [11]: inactive
- Tmax [12]: 30 min
- bioavailability [13]: 1.5%
- Drug uptake [14]: Not Active
- bioavailability [15]: 0.8%
- Kp [16]: 14
